According to patent publication US11446282B2, “Methods of treating mixed dyslipidemia and hypertriglycertdemia” (Kowa Company, Ltd., priority 2017, dated 2022):

Tested on: dyslipidemic patients with renal impairment
Test: Example 3 phase III 52-week trial: adverse events and adverse drug reactions
Format: in vivo, human
Description: This was a multicenter, single-arm, open-label, phase III trial. The inclusion criteria were as follows: (1) patients with dyslipidemia aged >20 years at the time of informed consent; (2) men and postmenopausal women; (3) fasting serum TG≥1.70 mmol/L (150 mg/dL) at two consecutive measurements during screening; and (4) patients who followed dietary and physical exercise guidance for >12 weeks before enrollment.
During the screening period (8 weeks prior to treatment initiation), tests were performed twice to determine patient eligibility. Thereafter, eligible patients orally received pemafibrate 0.2 mg/day (twice daily) for 52 weeks. From week 12 of the treatment period onwards, the investigators were instructed that the dose could be increased from 0.2 mg/day to 0.4 mg/day (twice daily) if there was an inadequate response to the initial dose based on fasting serum TG levels ≥1.70 mmol/L (150 mg/dL). Fasting blood and urine samples were collected at each visit. Blood and urine sample in patients with hemodialysis were collected just before dialysis. LDL-C levels were measured using the direct method. Lipoprotein fractions were measured by HPLC at baseline and weeks 12 and 40.
The primary efficacy endpoint was the percent change in fasting serum TG from baseline to the last evaluation point. The primary safety endpoints were the incidence of an AE or ADR occurring after drug administration during the study. Secondary efficacy endpoints included percent changes in lipid variables and changes in inflammation variables at week 52 [using the last-observation-carried-forward (LOCF)]. Secondary safety endpoints included changes in the levels of aspartate aminotransferase (AST), ALT, -GT, ALP, serum creatinine, eGFR, and CK at week 52. […]
The numbers of patients with AEs and ADRs and the incidences of AEs and ADRs were calculated in the analysis of primary safety endpoints. […] The secondary safety endpoints were analyzed with Wilcoxon signed-rank tests. […] Where indicated, the data are expressed as means±standard deviation (SD).

## CC[C@@H](Oc1cccc(CN(CCCOc2ccc(OC)cc2)c2nc3ccccc3o2)c1)C(=O)O [Pemafibrate, (2R)-2-[3-({1,3-benzoxazol-2-yl[3-(4-methoxyphenoxy)propyl]amino}methyl)phenoxy]butanoic acid]
0.2 (0.4) mg/day, 52 weeks
  incidence of adverse drug reactions: 31.7%
  incidence of adverse events: 82.0%
In vivo
  association of adverse event and adverse drug reaction incidences with baseline eGFR: not associated
